Measured values as given in article PMC9317316, “Synthesis and Evaluation of Some New 4H-Pyran Derivatives as Antioxidant, Antibacterial and Anti-HCT-116 Cells of CRC, with Molecular Docking, Antiproliferative, Apoptotic and ADME Investigations” (Pharmaceuticals, 2022).
Several values for one entry are separate records, joined by “and”; a condition that tells them apart may be missing. Equal entries are not always repeated. Where two headings read alike, the source gives them in different places.

Assays:
S. aureus (ATCC 25923) [1] = experiment: Antibacterial viability (CFU) assay, IC50; type: cell-based; conditions: Staphylococcus aureus, ATCC25923
Procedure, shortened: (§1)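 Inhibition zone on top agar after compound application, ampicillin 10 µg/well as standard. For IC50, bacteria (2 ×10^7 CFU/mL, BHI) exposed to compound 60 min at 37 °C with shaking, then diluted and plated 24 h at 37 °C; residual CFU relative to initial inoculum; triplicate means.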

[2] = test system: S. epidermidis (ATCC 14990); experiment: Antibacterial viability (CFU) assay, IC50; type: cell-based; conditions: Staphylococcus epidermidis, ATCC14990
Procedure, shortened: as §1

[3] = test system: P. aeruginosa (ATCC 27853); experiment: Antibacterial viability (CFU) assay, IC50; type: cell-based; conditions: Pseudomonas aeruginosa, ATCC27853
Procedure, shortened: as §1

B. cereus (ATCC 14579) [4] = experiment: Antibacterial viability (CFU) assay, IC50; type: cell-based; conditions: Bacillus cereus, ATCC14579
Procedure, shortened: as §1

E. coli (ATCC 25966) [5] = experiment: Antibacterial viability (CFU) assay, IC50; type: cell-based; conditions: Escherichia coli, ATCC25966; E. coil (ATCC 25966)
Procedure, shortened: as §1

S. enteric (ATCC 43972) [6] = experiment: Antibacterial viability (CFU) assay, IC50; type: cell-based; conditions: read-out: IC50
Procedure, shortened: as §1

E. faecalis (ATCC 29122) [7] = experiment: Antibacterial viability (CFU) assay, IC50; type: cell-based; conditions: Enterococcus faecalis, ATCC29122
Procedure, shortened: as §1

B. subtilis (ATCC 6633) [8] = experiment: Antibacterial viability (CFU) assay, IC50; type: cell-based
Procedure, shortened: as §1

[9] = test system: K. pneumonia (ATCC 700603); experiment: Antibacterial viability (CFU) assay, IC50; type: cell-based; conditions: Klebsiella pneumoniae, ATCC700603
Procedure, shortened: as §1

HCT-116 cells = experiment: Cell viability (cytotoxicity, LDH release) assay; type: cell-based; conditions: Homo sapiens, 24 h; for viability at 100 µg/mL: read-out: percent of viable cells
Procedure, shortened: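 Human colorectal HCT-116 cells exposed to compounds at 10, 25, 50 and 100 µg/mL in DMEM with 10% FBS for 24 h at 37 °C. LDH released into the supernatant measured at 600 nm; viability given as % of untreated control OD (mean ± SD, n = 3), 0.1% Triton X-100 as positive control.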

S. aureus (ATCC 25923) [10] = experiment: Antibacterial agar diffusion method (inhibition zone); type: cell-based
Procedure, shortened: as §1

[11] = test system: S. epidermidis (ATCC 14990); experiment: as above; type: cell-based
Procedure, shortened: as §1

[12] = test system: P. aeruginosa (ATCC 27853); experiment: as above; type: cell-based
Procedure, shortened: as §1

B. cereus (ATCC 14579) [13] = experiment: as above; type: cell-based
Procedure, shortened: as §1

E. coli (ATCC 25966) [14] = experiment: as above; type: cell-based; conditions: E. coil (ATCC 25966)
Procedure, shortened: as §1

S. enteric (ATCC 43972) [15] = experiment: as above; type: cell-based
Procedure, shortened: as §1

E. faecalis (ATCC 29122) [16] = experiment: as above; type: cell-based
Procedure, shortened: as §1

B. subtilis (ATCC 6633) [17] = experiment: as above; type: cell-based
Procedure, shortened: as §1

[18] = test system: K. pneumonia (ATCC 700603); experiment: as above; type: cell-based
Procedure, shortened: as §1

[19] = DPPH radical scavenging assay; conditions: for IC50: 0.03 to 1 mg/mL, 1 h, mean ± SD, triplicate, read-out: IC50 (mM) for DPPH Scavenging Potency
Procedure, shortened: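 Ethanolic DPPH mixed with samples at 0.03 to 1 mg/mL, kept 1 h at room temperature in darkness, then absorbance read at 519 nm against compound-free control. Scavenging percentage computed as (1 − Acompound/Acontrol) × 100; IC50 interpolated from scavenging-versus-concentration plot.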

[20] = Reducing power assay (FRAC, Fe3+ to Fe2+); conditions: 0-1 mg/mL, absorbance 700 nm
Procedure, shortened: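 Oyaizu method: compound (0–1 mg/mL) incubated with 0.2 M phosphate buffer pH 6.6 and 1% K3Fe(CN)6 at 50 °C for 20 min, then TCA, centrifugation, and 0.1% FeCl3 added to supernatant. Absorbance read at 700 nm; EC50 expressed in mM, BHT as reference.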

[21] = Bacillus subtilis, ATCC6633, B. subtilis (ATCC 6633)
[22] = read-out: Mean IC50 (µM) of cytotoxicity
[23] = read-out: Mean IC50 (µg/mL) of cytotoxicity

Row | SMILES | IC50 (S. aureus (ATCC 25923) [1]) [µM] | IC50 [2] [µM] | IC50 [3] [µM] | IC50 (B. cereus (ATCC 14579) [4]) [µM] | IC50 (E. coli (ATCC 25966) [5]) [µM] | IC50 (S. enteric (ATCC 43972) [6]) [µM] | IC50 (E. faecalis (ATCC 29122) [7]) [µM] | IC50 (B. subtilis (ATCC 6633) [8]; B. subtilis (ATCC 6633)) [µM] | IC50 (B. subtilis (ATCC 6633) [8]; [21]) [µM] | IC50 [9] [µM] | viability at 100 µg/mL (HCT-116 cells) [%] | IC50 (HCT-116 cells; [22]) [µM] | IC50 (HCT-116 cells; [23]) [µg/mL] | IZ (mm) (S. aureus (ATCC 25923) [10]) | IZ (mm) [11] [mm] | IZ (mm) [12] [mm] | IZ (mm) (B. cereus (ATCC 14579) [13]) | IZ (mm) (E. coli (ATCC 25966) [14]) | IZ (mm) (S. enteric (ATCC 43972) [15]) | IZ (mm) (E. faecalis (ATCC 29122) [16]) | further results
1 | CC1=C(C(=O)OCc2ccccc2)C(c2ccc(F)cc2)C(C#N)=C(N)O1 (stereo not shown) [4i, 6-Amino-5-cyano-4-(4-fluoro-phenyl)-2-methyl-4H-pyran-3-carboxylic acid benzyl ester] | 40.2 ± 1.37 | 46 ± 0.96 | 62 ± 2.2 | 38 ± 1.37 | 82.6 ± 1.65 | 91.5 ± 2.74 | 37.5 ± 1.37 | 31.6 ± 1.95 | 23.6 to 36.8 | 79.9 ± 3.02 | 11 to 32.5 | 181 ± 12.4 | 66 ± 4.53 | 9.50 ± 2.12 mm | 11.50 ± 0.71 | 8.5 ± 0.7 | 14.50 ± 0.71 | 5.5 ± 0.71 | 8.0 ± 1.4 | 6.50 ± 0.71 | IZ (mm) (B. subtilis (ATCC 6633) [17]): 9.50 mm and 9.50 ± 0.71 mm; IZ (mm) [18]: 6.5 ± 0.7 mm; melting point: 124 to 126 °C; IC50 [19]: 1.78 ± 0.115 mM; DPPH Radical Scavenging Effenciency (%) at 1 mg/mL [19]: 26.05 ± 1.06%; EC50 [20]: 274 ± 39 µM
2 | CC1=C(C(=O)OCc2ccccc2)C(c2ccccc2Cl)C(C#N)=C(N)O1 (stereo not shown) [4l, 6-Amino-4-(2-chloro-phenyl)-5-cyano-2-methyl-4H-pyran-3-carboxylic acid benzyl ester] | 31.1 ± 0.55 | 33.4 ± 1.1 | 72.7 ± 2.63 | 33.2 ± 2.42 | 90.1 ± 2.63 | 77.6 ± 1.58 | 37.8 ± 1.5 | 32.6 ± 1.5 | 23.6 to 36.8 | 77.5 ± 7.08 | 11 to 32.5 | 93.4 ± 4.63 | 35.5 ± 1.77 | 9.00 mm and 9.00 ± 1.41 mm | 10.50 ± 0.71 | 4.5 ± 0.7 | 10.00 ± 1.41 | 3.5 ± 0.7 | 4.0 ± 0.0 | 6.00 ± 1.41 | IZ (mm) (B. subtilis (ATCC 6633) [17]): 11.50 ± 0.71 mm; IZ (mm) [18]: 2.5 ± 0.7 mm; melting point: 162 to 164 °C; IC50 [19]: 0.919 ± 0.026 mM; DPPH Radical Scavenging Effenciency (%) at 1 mg/mL [19]: 70.20% and 70.20 ± 1.70%; EC50 [20]: 801 ± 19 µM
